Among the test systems are Escherichia coli; Acinetobacter baumannii; Staphylococcus aureus; Pseudomonas aeruginosa; Staphylococcus aureus 1; Bacillus subtilis 168; Escherichia coli B; Candida albicans; Escherichia coli UB1005.
Assay in all cases: ≥ marks a high value that may be exact or a test limit, other limits are often not marked, values filed in µg/mL are converted to µM
The subject of assay [1] is Staphylococcus aureus ATCC 33591.
For assay [2], the system named is Klebsiella pneumoniae ATCC 700603.
In assay [3] the test system is Staphylococcus aureus ATCC 700699.
Assay [4] deals with Staphylococcus aureus ATCC 29213.
Assay [5] concerns Pseudomonas aeruginosa ATCC 27853.
Assay [6] concerns Escherichia coli ATCC 25922.
Assay [7] relates to Staphylococcus aureus ATCC 25923.
Assay [8] has as its system Pseudomonas aeruginosa PAO1.
For assay [9], the system named is Salmonella enterica serovar Typhimurium.
The test system of assay [10] is Candida albicans F7-39/IDE99.
Assay [11] has as its system Staphylococcus epidermidis.
The test system of assay [12] is Micrococcus luteus CCM 144.
The subject of assay [13] is Staphylococcus aureus ATCC 43300.
Assay [14] relates to Pseudomonas aeruginosa H103.
The subject of assay [15] is Enterococcus faecalis ATCC 29212.

≈ marks a conversion by molar mass, not a printed value.

On to `CC[C@H](C)[C@H](NC(=O)[C@H](CC(=O)O)NC(=O)[C@H](CCCCN)NC(=O)[C@H](C)NC(=O)[C@H](C)NC(=O)CNC(=O)[C@H](CCCCN)NC(=O)[C@H](CC(C)C)NC(=O)[C@@H](NC(=O)[C@H](CC(=O)O)NC(=O)[C@@H](NC(=O)[C@@H](NC(=O)CN)C(C)C)C(C)C)[C@@H](C)CC)C(=O)N[C@@H](C)C(=O)NCC(=O)N[C@@H](Cc1cnc[nH]1)C(=O)N[C@@H](CC(C)C)C(=O)N[C@@H](C)C(=O)N[C@@H](CO)C(=O)N[C@@H](CCCCN)C(=O)N[C@@H](C)C(=O)N[C@@H](CCSC)C(=O)N[C@@H](CC(N)=O)C(=O)N[C@@H](CCCCN)C(=O)N[C@@H](CC(C)C)C(N)=O` [GVVDILKGAAKDIAGHLASKAMNKL], for which the MIC – broadly, the least concentration at which growth counts as inhibited – in assay [1] is not below 100 µM; in assay [2], more than 100 µM; in [3], not below 100 µM; in assay [4], more than 100 µM; in assay [5], more than 100 µM; in [6] it was more than 100 µM.
On to `CC[C@H](C)[C@H](NC(=O)[C@H](CC(=O)O)NC(=O)[C@H](CCCCN)NC(=O)[C@H](C)NC(=O)[C@H](C)NC(=O)CNC(=O)[C@H](CCCCN)NC(=O)[C@H](CC(C)C)NC(=O)[C@@H](NC(=O)[C@H](CC(=O)O)NC(=O)[C@@H](NC(=O)[C@@H](NC(=O)CN)C(C)C)C(C)C)[C@@H](C)CC)C(=O)N[C@@H](C)C(=O)NCC(=O)N[C@@H](Cc1cnc[nH]1)C(=O)N[C@@H](C)C(=O)N[C@@H](CO)C(=O)N[C@@H](CCCCN)C(=O)N[C@H](C(=O)N[C@@H](CCSC)C(=O)N[C@@H](CC(N)=O)C(=O)N[C@@H](CCCCN)C(=O)N[C@@H](CC(C)C)C(N)=O)C(C)C` [GVVDILKGAAKDIAGHASKVMNKL], for which the MIC in assay [1] is not below 100 µM; in assay [2], more than 100 µM; in assay [3], not below 100 µM; in assay [4] it was more than 100 µM; in assay [5] it was more than 100 µM; in assay [6] it was more than 100 µM.
As to `CC[C@H](C)[C@H](NC(=O)[C@H](CCCN=C(N)N)NC(=O)[C@H](CC(C)C)NC(=O)[C@H](CCC(N)=O)NC(=O)[C@@H](N)C(C)C)C(=O)N[C@@H](CCCN=C(N)N)C(=O)N[C@H](C(=O)N[C@@H](CS)C(=O)N[C@H](C(=O)N[C@H](C(=O)N[C@@H](CCCN=C(N)N)C(=O)N[C@@H](CCCCN)C(=O)O)[C@@H](C)CC)C(C)C)C(C)C` [VQLRIRVCVIRK], the MIC in the assay with Escherichia coli is 30.5 µM (≈ 45.3 µg/mL); against Acinetobacter baumannii, 21.6 µM (≈ 32 µg/mL); in assay [7] it was 10.8 µM (≈ 16 µg/mL); in the assay on Staphylococcus aureus it was 7.63 µM (≈ 11.3 µg/mL); in assay [8], 10.8 µM (≈ 16 µg/mL); in [9] it was 5.39 µM (≈ 8 µg/mL). Moreover, the MIC (with Pseudomonas aeruginosa; in assay [6]) was 10.8 µM (≈ 16 µg/mL) throughout.
`CC[C@H](C)[C@H](NC(=O)CN)C(=O)N[C@@H](Cc1c[nH]c2ccccc12)C(=O)N[C@@H](CO)C(=O)N[C@@H](CO)C(=O)N[C@@H](CC(C)C)C(=O)N[C@@H](CC(C)C)C(=O)N[C@@H](CCCCN)C(=O)N[C@@H](CCCCN)C(=O)N[C@@H](CC(C)C)C(=O)N[C@@H](CCCCN)C(=O)N[C@@H](CCCCN)C(=O)N[C@H](C(=O)N[C@H](C(=O)N[C@@H](C)C(=O)N[C@@H](CCCCN)C(N)=O)[C@@H](C)CC)[C@@H](C)CC` [GIWSSLLKKLKKIIAK]: the MIC in assay [10] is 16 µM (≈ 29.2 µg/mL); in assay [11] it was 1.5 µM (≈ 2.74 µg/mL); with Staphylococcus aureus 1, 4.6 µM (≈ 8.4 µg/mL); in [12], 3 µM (≈ 5.48 µg/mL); in [13] it was 20 µM (≈ 36.5 µg/mL); against Bacillus subtilis 168, 7 µM (≈ 12.8 µg/mL). Also, the MIC in the assay with Escherichia coli B was found to be 1.6 µM (≈ 2.92 µg/mL); in assay [5], 6.3 µM (≈ 11.5 µg/mL); in the assay on Staphylococcus aureus, 5.3 µM (≈ 9.67 µg/mL); with Pseudomonas aeruginosa, 21 µM (≈ 38.3 µg/mL).
For `CC[C@H](C)[C@H](NC(=O)[C@H](CCCN=C(N)N)NC(=O)[C@H](Cc1ccccc1)NC(=O)[C@H](CCCN=C(N)N)NC(=O)[C@@H](N)C(C)C)C(=O)N[C@@H](CCCN=C(N)N)C(=O)N[C@H](C(=O)N[C@@H](C)C(=O)N[C@H](C(=O)N[C@H](C(=O)N[C@@H](CCCN=C(N)N)C(=O)N[C@@H](C)C(N)=O)[C@@H](C)CC)C(C)C)C(C)C` [VRFRIRVAVIRA], the MIC in [11] stood at 1.1 µM (≈ 1.6 µg/mL); in [14] it was 4.12 µM (≈ 6 µg/mL); with Candida albicans, 4.12 µM (≈ 6 µg/mL); in the assay on Escherichia coli UB1005, 1.1 µM (≈ 1.6 µg/mL); in assay [7], 8.24 µM (≈ 12 µg/mL); in assay [9], 4.12 µM (≈ 6 µg/mL).
As to `NCCCC[C@H](NC(=O)[C@H](Cc1c[nH]c2ccccc12)NC(=O)[C@H](Cc1c[nH]c2ccccc12)NC(=O)[C@H](CCCN=C(N)N)NC(=O)[C@@H](N)CCCN=C(N)N)C(=O)N[C@@H](Cc1c[nH]c2ccccc12)C(=O)N[C@@H](Cc1c[nH]c2ccccc12)C(=O)N[C@@H](Cc1c[nH]c2ccccc12)C(=O)N[C@@H](CCCN=C(N)N)C(=O)O` [RRWWKWWWR], the MIC turned out to be 0.7 µM (≈ 1.08 µg/mL) in [11]; 5.4 µM (≈ 8.35 µg/mL) in assay [14]; 5.4 µM (≈ 8.35 µg/mL) in the assay on Candida albicans; 2.7 µM (≈ 4.17 µg/mL) against Escherichia coli UB1005; 5.4 µM (≈ 8.35 µg/mL) in assay [15]; 0.7 µM (≈ 1.08 µg/mL) in assay [7]. For the same compound, in assay [9], the MIC stood at 2.7 µM (≈ 4.17 µg/mL).
In the case of `CC[C@H](C)[C@H](NC(=O)CN)C(=O)N[C@@H](CCSC)C(=O)N[C@@H](CO)C(=O)N[C@@H](CO)C(=O)N[C@@H](CC(C)C)C(=O)N[C@@H](CCSC)C(=O)N[C@@H](CCCCN)C(=O)N[C@@H](CCCCN)C(=O)N[C@@H](CC(C)C)C(=O)N[C@@H](C)C(=O)N[C@@H](C)C(=O)N[C@@H](Cc1cnc[nH]1)C(=O)N[C@H](C(=O)N[C@@H](C)C(=O)N[C@@H](CCCCN)C(N)=O)[C@@H](C)CC` [GIMSSLMKKLAAHIAK], the MIC is 18 µM (≈ 30.6 µg/mL) in assay [10]; 13 µM (≈ 22.1 µg/mL) in [11]; not below 53 µM in the assay on Staphylococcus aureus 1; 3 µM (≈ 5.09 µg/mL) in assay [12]; 63 µM (≈ 107 µg/mL) in [13]; 7 µM (≈ 11.9 µg/mL) in the assay on Bacillus subtilis 168. The MIC in the assay with Escherichia coli B amounted to 15 µM (≈ 25.5 µg/mL); in [5] it was 20 µM (≈ 34 µg/mL); in the assay on Staphylococcus aureus it was 64 µM (≈ 109 µg/mL); with Pseudomonas aeruginosa, 68 µM (≈ 115 µg/mL).
For `CC[C@H](C)[C@H](NC(=O)CN)C(=O)N[C@@H](CCSC)C(=O)N[C@@H](CO)C(=O)N[C@@H](CO)C(=O)N[C@@H](CC(C)C)C(=O)N[C@@H](CCSC)C(=O)N[C@@H](CCCCN)C(=O)N[C@@H](CCCCN)C(=O)N[C@@H](CC(C)C)C(=O)N[C@@H](C)C(=O)N[C@@H](CCCCN)C(=O)N[C@H](C(=O)N[C@H](C(=O)N[C@@H](CCCCN)C(=O)N[C@@H](CCCCN)C(N)=O)[C@@H](C)CC)[C@@H](C)CC` [GIMSSLMKKLAKIIKK], the MIC in [10] amounted to 7.6 µM (≈ 13.6 µg/mL); in [11], 2.9 µM (≈ 5.19 µg/mL); in the assay with Staphylococcus aureus 1, 8.6 µM (≈ 15.4 µg/mL); in assay [12], 3 µM (≈ 5.37 µg/mL); in [13], 33 µM (≈ 59 µg/mL); against Bacillus subtilis 168, 7 µM (≈ 12.5 µg/mL). Moreover, the MIC with Escherichia coli B came out at 15 µM (≈ 26.8 µg/mL); in assay [5], 5.2 µM (≈ 9.3 µg/mL); with Staphylococcus aureus, 17 µM (≈ 30.4 µg/mL); in the assay with Pseudomonas aeruginosa, 10 µM (≈ 17.9 µg/mL).
With `CC[C@H](C)[C@H](NC(=O)[C@@H](NC(=O)[C@@H](NC(=O)[C@H](CCCN=C(N)N)NC(=O)[C@@H](NC(=O)[C@H](CCCN=C(N)N)NC(=O)[C@H](Cc1c[nH]c2ccccc12)NC(=O)[C@H](CCCCN)NC(=O)[C@@H](N)Cc1c[nH]c2ccccc12)C(C)C)C(C)C)[C@@H](C)O)C(=O)O` [WKWRVRVTI], the minimum inhibitory concentration (MIC) in assay [11] came to 1.3 µM (≈ 1.62 µg/mL); in [14], 5.4 µM (≈ 6.72 µg/mL); with Candida albicans, 10.8 µM (≈ 13.4 µg/mL); with Escherichia coli UB1005, 1.3 µM (≈ 1.62 µg/mL); in assay [15], 2.7 µM (≈ 3.36 µg/mL); in assay [7], 2.7 µM (≈ 3.36 µg/mL). The same compound had an MIC in [9] of 2.7 µM (≈ 3.36 µg/mL).

These data come from DBAASP.
